Calls of active or inactive are those of the source. The rule behind the calls is not given here.
What was measured:
Mus musculus [1] = experiment: Protection against hyperlipidemia in high fat diet-fed hyperlipidemic ICR mouse model assessed as reduction in body weight at 10 mg/kg, ig administered daily via gavage for 8 weeks; assay type: functional; details: po, 1344 h
Mus musculus [2] = experiment: Protection against hyperlipidemia in high fat diet-fed hyperlipidemic ICR mouse model assessed as reduction in hepatic triglyceride content at 10 mg/kg, ig administered daily via gavage for 8 weeks by colorimetric assay; assay type: functional; details: po, 1344 h
[3] = Toxicity in normal diet fed ICR mouse assessed as ratio of spleen weight to body weight at 10 mg/kg, ig administered daily via gavage for 8 weeks (reference value: 0.42 +/-0.08); assay type: organism-based; details: in vivo, po, 1344 h
[4] = Toxicity in normal diet fed ICR mouse assessed as ratio of heart weight to body weight at 10 mg/kg, ig administered daily via gavage for 8 weeks (reference value: 0.46 +/-0.03); assay type: organism-based; details: in vivo, po, 1344 h
Mus musculus [5] = experiment: Protection against hyperlipidemia in high fat diet-fed hyperlipidemic ICR mouse model assessed as reduction in serum triglyceride content at 10 mg/kg, ig administered daily via gavage for 8 weeks by spectrophotometric analysis; assay type: functional; details: po, 1344 h
Mus musculus [6] = experiment: Upregulation of NPC1 mRNA expression in liver of high fat diet fed hyperlipidemic ICR mouse model at 10 mg/kg, ig administered daily via gavage for 8 weeks by qPCR analysis; assay type: functional, organism-based
[7] = Toxicity in normal diet fed ICR mouse assessed as hepatic total cholesterol content at 10 mg/kg, ig administered daily via gavage for 8 weeks by colorimetric assay; assay type: organism-based; details: in vivo, po, 1344 h
Mus musculus [8] = experiment: Upregulation of PPAR-gamma mRNA expression in liver of high fat diet fed hyperlipidemic ICR mouse model at 10 to 20 mg/kg, ig administered daily via gavage for 8 weeks by qPCR analysis; assay type: functional, organism-based; details: dose 10-20 mg/kg
Mus musculus [9] = experiment: Upregulation of ABCA1 mRNA expression in liver of high fat diet fed hyperlipidemic ICR mouse model at 10 mg/kg, ig administered daily via gavage for 8 weeks by qPCR analysis; assay type: functional, organism-based
Mus musculus [10] = experiment: Upregulation of ABCG1 mRNA expression in liver of high fat diet fed hyperlipidemic ICR mouse model at 10 mg/kg, ig administered daily via gavage for 8 weeks by qPCR analysis relative to control; assay type: functional
[11] = Toxicity in normal diet fed ICR mouse assessed as hepatic triglyceride content at 10 mg/kg, ig administered daily via gavage for 8 weeks by colorimetric assay; assay type: organism-based; details: in vivo, po, 1344 h
[12] = Toxicity in normal diet fed ICR mouse assessed as ratio of stomach weight to body weight at 10 mg/kg, ig administered daily via gavage for 8 weeks (reference value: 1.24 +/-0.41); assay type: organism-based; details: in vivo, po, 1344 h
Mus musculus [13] = experiment: Protection against hyperlipidemia in high fat diet-fed hyperlipidemic ICR mouse model assessed as reduction in vacuolar degeneration of hepatocytes at 10 mg/kg, ig administered daily via gavage for 8 weeks by Hematoxylin-eosin staining based analysis; assay type: functional, organism-based
[14] = Toxicity in high fat diet fed hyperlipidemic ICR mouse model assessed as ratio of heart weight to body weight at 10 mg/kg, ig administered daily via gavage for 8 weeks (reference value: 0.48 +/-0.03); assay type: organism-based; details: in vivo, po, 1344 h
Mus musculus [15] = experiment: Protection against hyperlipidemia in high fat diet-fed hyperlipidemic ICR mouse model assessed as normal and less pale colored liver at 10 to 20 mg/kg, ig administered daily via gavage for 8 weeks; assay type: functional, organism-based; details: dose 10-20 mg/kg
Mus musculus [16] = experiment: Upregulation of SR-B1 mRNA expression in liver of high fat diet fed hyperlipidemic ICR mouse model at 10 mg/kg, ig administered daily via gavage for 8 weeks by qPCR analysis; assay type: functional, organism-based
[17] = Toxicity in normal diet fed ICR mouse assessed as ratio of kidney weight to body weight at 10 mg/kg, ig administered daily via gavage for 8 weeks (reference value: 1.33 +/-0.12); assay type: organism-based; details: in vivo, po, 1344 h
[18] = biological target: T1, Retinoic acid receptor RXR-alpha (Homo sapiens) (UniProt P19793); experiment: Agonist activity at human RXR-alpha expressed in HEK293 cells co-transfected with luciferase reporter plasmid assessed as receptor transactivation at 10 uM incubated for 18 hrs by luciferase reporter gene assay relative to control; assay type: cell-based
T1 sequence (whole entry): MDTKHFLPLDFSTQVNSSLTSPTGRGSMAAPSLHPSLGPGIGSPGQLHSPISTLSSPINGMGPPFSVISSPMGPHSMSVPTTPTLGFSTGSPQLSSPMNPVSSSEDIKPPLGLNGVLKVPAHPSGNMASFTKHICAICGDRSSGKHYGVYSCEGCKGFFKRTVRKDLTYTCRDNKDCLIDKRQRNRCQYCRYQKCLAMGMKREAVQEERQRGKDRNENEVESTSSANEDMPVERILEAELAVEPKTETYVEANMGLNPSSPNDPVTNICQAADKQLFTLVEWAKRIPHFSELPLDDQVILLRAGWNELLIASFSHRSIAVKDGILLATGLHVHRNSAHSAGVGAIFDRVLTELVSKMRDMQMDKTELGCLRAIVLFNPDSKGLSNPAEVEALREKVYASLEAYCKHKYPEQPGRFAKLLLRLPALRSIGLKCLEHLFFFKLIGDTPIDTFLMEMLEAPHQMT

Mus musculus [19] = experiment: Protection against hyperlipidemia in high fat diet-fed hyperlipidemic ICR mouse model assessed as reduction in serum LDL-C content at 20 mg/kg, ig administered daily via gavage for 8 weeks by spectrophotometric analysis; assay type: functional, organism-based
[20] = Toxicity in normal diet fed ICR mouse assessed as ratio of lung weight to body weight at 10 mg/kg, ig administered daily via gavage for 8 weeks (reference value: 0.83 +/-0.32); assay type: organism-based; details: in vivo, po, 1344 h
[21] = Toxicity against normal diet-fed ICR mouse assessed as effect on plasma LDL-C content at 10 mg/kg, ig administered daily via gavage for 8 weeks by spectrophotometric analysis; assay type: organism-based; details: in vivo, po, 1344 h
[22] = Toxicity in high fat diet fed hyperlipidemic ICR mouse model assessed as ratio of kidney weight to body weight at 10 mg/kg, ig administered daily via gavage for 8 weeks (reference value: 1.34 +/-0.09); assay type: organism-based; details: in vivo, po, 1344 h
[23] = Toxicity in normal diet fed ICR mouse assessed as liver morphological changes at 10 mg/kg, ig administered daily via gavage for 8 weeks; assay type: organism-based; details: in vivo, po, 1344 h
Mus musculus [24] = experiment: Protection against hyperlipidemia in high fat diet-fed hyperlipidemic ICR mouse model assessed as reduction in hepatic triglyceride content at 20 mg/kg, ig administered daily via gavage for 8 weeks by colorimetric assay; assay type: functional, organism-based
Mus musculus [25] = experiment: Protection against hyperlipidemia in high fat diet-fed hyperlipidemic ICR mouse model assessed as serum HDL-C content at 10 mg/kg, ig administered daily via gavage for 8 weeks by spectrophotometric analysis; assay type: functional, organism-based
Mus musculus [26] = experiment: Protection against hyperlipidemia in high fat diet-fed hyperlipidemic ICR mouse model assessed as reduction in hepatic TBA content at 10 to 20 mg/kg, ig administered daily via gavage for 8 weeks by colorimetric assay; assay type: functional, organism-based; details: dose 10-20 mg/kg
Mus musculus [27] = experiment: Downregulation of ABCG8 mRNA expression in liver of high fat diet fed hyperlipidemic ICR mouse model at 10 mg/kg, ig administered daily via gavage for 8 weeks by qPCR analysis; assay type: functional, organism-based
[28] = Toxicity in normal diet fed ICR mouse assessed as effect on food intake at 10 mg/kg, ig administered daily via gavage for 8 weeks; assay type: organism-based; details: in vivo, po, 1344 h
[29] = Toxicity against normal diet-fed ICR mouse assessed as effect on plasma triglyceride content at 10 mg/kg, ig administered daily via gavage for 8 weeks by spectrophotometric analysis; assay type: organism-based; details: in vivo, po, 1344 h

CN1c2ccccc2C(=O)N2CCc3c([nH]c4ccccc34)C21 (centres undefined)
inhibition in vivo at 10 mg/kg (Mus musculus [1]): 68.1%
inhibition in vivo at 10 mg/kg (Mus musculus [2]): 33.2%
Ratio [3]: 0.41
Ratio [4]: 0.49
inhibition in vivo at 10 mg/kg (Mus musculus [5]): 34%
Activity (Mus musculus [6]): inactive
Activity [7]: Non-Toxic
Activity (Mus musculus [8]): Active
Activity (Mus musculus [9]): inactive
fold change (FC) (Mus musculus [10]): 3.6
Activity [11]: Non-Toxic
Ratio [12]: 1.48
Activity (Mus musculus [13]): Active
Ratio [14]: 0.48
Activity (Mus musculus [15]): Active
Activity (Mus musculus [16]): inactive
Ratio [17]: 1.33
fold change (FC) [18]: 1.04
Activity (Mus musculus [19]): Active
Ratio [20]: 0.78
Activity [21]: Non-Toxic
Ratio [22]: 1.29
Activity [23]: Non-Toxic
Activity (Mus musculus [24]): Active
Activity (Mus musculus [25]): inactive
Activity (Mus musculus [26]): Active
inhibition (Mus musculus [27]): Active
Activity [28]: Non-Toxic
Activity [29]: Non-Toxic

Source: ChEMBL document CHEMBL5244280, “Evodiamine Lowers Blood Lipids by Up-Regulating the PPARγ/ABCG1 Pathway in High-Fat-Diet-Fed Mice” (J Nat Prod, 2021)
